Broadly, the inhibition is the drop in the measured response relative to a control, in per cent. As usually defined, the melting point is the temperature, or range, at which the solid turns liquid.

Data set [1] relates to bladder cancer tumour cells of TCC97-7 type carrying the Ser249Cys mutation of FGF receptor 3. As to the kind of experiment: Inhibition of serum-induced proliferation of TCC97-7 bladder cancer cells (cell-covered surface area, Incucyte). The data set is classed as cell-based. The conditions noted are these: 72 h, TCC97-7 cell line in the presence of serum, after 3 days. On the procedure:
Evaluation of the Capacity of the FGF-R Antagonists to Inhibit Serum-Induced Proliferation of Bladder Cancer Tumour Cells of TCC97-7 Type Carrying the Ser249Cys Mutation of FGF Receptor 3
To do this, 2000 cells are seeded in the morning in 50 μl of complete medium (Ham-F/12, 1% FCS, 2 mM glutamine, non-essential amino acids, sodium pyruvate, 1% insulin/transferrin/selenium, hydrocortisone). In the evening, 50 μl of the various compounds are added at 2 or 20 μM after dilution in complete culture medium in order to obtain final concentrations of 1 or 10 μM. After 3 days, cell proliferation is evaluated by measuring the cell-covered surface area of a well of a 96 well plate. This surface area is measured using an Incucyte apparatus (Essen BioScience). The percentage inhibition of the cell proliferation is calculated by considering the surface area occupied by the TCC97-7 cells cultured in the absence of FGF-R antagonists to be 0% inhibition. 100% inhibition would correspond to a well no longer containing cells.
Thus, compounds 1 to 24 are capable of inhibiting TCC97-7 cell proliferation by more than 20% at the dose of 1 or 10 μM. (Table No. 2).

Data set [2] has as its system TCC97-7 bladder cancer cells carrying the Ser249Cys mutation of FGF-R3. In words: Reduction of intracellular ATP content of TCC97-7 cells in serum-supplemented medium (Cell Titer-Glo). The data set is classed as cell-based. The conditions noted are these: 72 h, TCC97-7 cells cultured in the presence of serum, after 3 days, read-out: Inhibition of the amount of intracellular ATP (%). On the procedure:
Evaluation of the Capacity of FGF-R Antagonists to Reduce the ATP Content of TCC97-7 Bladder Cancer Cells Carrying the Ser249Cys Mutation of FGF-R3, Cultured in a Serum-Supplemented Medium
To do this, 3000 cells are seeded in 50 μl of complete medium (Ham-F/12, 1% FCS, 2 mM glutamine, non-essential amino acids, sodium pyruvate, 1% insulin/transferrin/selenium, hydrocortisone). 16 hours later, 50 μl of the various compounds are added at 2 and 20 μM after dilution in complete culture medium in order to obtain final concentrations of 1 and 10 μM. After 3 days, the ATP content of the cells is measured using the Cell Titer-Glo® Luminescent Cell Viability Assay kit (Promega, France) according to the supplier's recommendations. The percentage inhibition of the amount of intracellular ATP is calculated by considering the ATP content of the cells cultured in the absence of antagonist to be 0% inhibition. 100% inhibition would correspond to a well in which the ATP content is zero.
Thus, compounds 1 to 24 are capable of inhibiting the amount of intracellular ATP in TCC97-7 cells by more than 20% at the dose of 1 or 10 μM (Table No. 3).

With `COc1cccc(-c2n[nH]c3nc(-c4ccc(N)c(C#N)c4)cc(C(F)F)c23)c1` [compound 12, 2-Amino-5-[4-difluoromethyl-3-(3-methoxyphenyl)-1H-pyrazolo[3,4-b]pyridin-6-yl]benzonitrile], the melting point is 233 °C. In addition, in data set [1], the inhibition at 1 µM amounted to 12.1% and the inhibition at 10 µM was found to be 95.8%. In addition, in data set [2], the inhibition at 1 µM was found to be 23.8% and the inhibition at 10 µM is 75.8%.

The compound `CN(C)c1cccc(-c2cc(C(F)(F)F)c3c(-c4ccccc4)nn(C)c3n2)c1` [compound 3, Dimethyl-[3-(1-methyl-3-phenyl-4-trifluoromethyl-1H-pyrazolo[3,4-b]pyridin-6-yl)phenyl]amine] gave a melting point of 95 °C. Moreover, in data set [1], the inhibition at 1 µM was -32.3% and the inhibition at 10 µM amounted to 40%. Also, in data set [2], the inhibition at 1 µM came out at 21.3% and the inhibition at 10 µM turned out to be 47.7%.

`Nc1ccc(-c2cc(C(F)(F)F)c3c(-c4ccccc4)n[nH]c3n2)cc1` [compound 16, 4-(3-Phenyl-4-trifluoromethyl-1H-pyrazolo[3,4-b]pyridin-6-yl)phenylamine] returned a melting point of 237 °C. In addition, in data set [2], the inhibition at 1 µM came out at 24% and the inhibition at 10 µM came to 38%.

In the case of `COc1ncc(-c2cc(C(F)(F)F)c3c(-c4ccccc4)nn(C)c3n2)cc1C#N` [compound 9, 2-Methoxy-5-(1-methyl-3-phenyl-4-trifluoromethyl-1H-pyrazolo[3,4-b]pyridin-6-yl)nicotinonitrile], the melting point stood at 250 °C. Moreover, in data set [1], the inhibition at 1 µM is 27.6% and the inhibition at 10 µM is 79.7%. In addition, in data set [2], the inhibition at 1 µM is 12.3% and the inhibition at 10 µM was 69.3%.

Turning to `N#Cc1cc(-c2cc(C(F)F)c3c(-c4cccnc4)n[nH]c3n2)ccc1N` [compound 11, 2-Amino-5-(4-difluoromethyl-3-pyridin-3-yl-1H-pyrazolo[3,4-b]pyridin-6-yl)benzonitrile], the melting point stood at 296 °C. In data set [1], the inhibition at 1 µM worked out at 50.4% and the inhibition at 10 µM was 19.2%. Also, in data set [2], the inhibition at 1 µM was determined as 21.5% and the inhibition at 10 µM amounted to 25.5%.

`O=c1[nH]c2ccc(-c3cc(C(F)(F)F)c4c(-c5ccccc5)n[nH]c4n3)cc2[nH]1` [compound 15, 5-(3-Phenyl-4-trifluoromethyl-1H-pyrazolo[3,4-b]pyridin-6-yl)-1,3-dihydrobenzoimidazol-2-one] registered a melting point of 380 °C. Besides, in data set [1], the inhibition at 1 µM is -3% and the inhibition at 10 µM worked out at 29%. Besides, in data set [2], the inhibition at 1 µM was -11% and the inhibition at 10 µM was 19%.

The record behind these values is patent US9572799B2, “Pyrazolopyridine derivatives for use in the treatment of bladder cancer” (SANOFI, priority 2013, dated 2017).
